According to ChEMBL document CHEMBL5154871, “Non-peptidyl non-covalent cathepsin C inhibitoEEr bearing a unique thiophene-substituted pyridine: Design, structure-activity relationship and anti-inflammatory activity in vivo” (Eur J Med Chem, 2022):
Active and inactive are the calls of the source. The calls are words filed in the database; no cut-off is given here.

Key:
[1] = target: T1, Dipeptidyl peptidase 1 (Mus musculus) (UniProt P97821); test: Inhibition of Cathepsin C in C57BL/6 mouse Bone marrow cells assessed as reduction of NSPs stability by measuring stability of neutrophil elastase at 1 uM treated for 12 hrs by Western blotting analysis; assay type: cell-based; set-up: scale not given: the % may be the effect or the level left; settings: Bone marrow cell
T1 sequence (whole entry): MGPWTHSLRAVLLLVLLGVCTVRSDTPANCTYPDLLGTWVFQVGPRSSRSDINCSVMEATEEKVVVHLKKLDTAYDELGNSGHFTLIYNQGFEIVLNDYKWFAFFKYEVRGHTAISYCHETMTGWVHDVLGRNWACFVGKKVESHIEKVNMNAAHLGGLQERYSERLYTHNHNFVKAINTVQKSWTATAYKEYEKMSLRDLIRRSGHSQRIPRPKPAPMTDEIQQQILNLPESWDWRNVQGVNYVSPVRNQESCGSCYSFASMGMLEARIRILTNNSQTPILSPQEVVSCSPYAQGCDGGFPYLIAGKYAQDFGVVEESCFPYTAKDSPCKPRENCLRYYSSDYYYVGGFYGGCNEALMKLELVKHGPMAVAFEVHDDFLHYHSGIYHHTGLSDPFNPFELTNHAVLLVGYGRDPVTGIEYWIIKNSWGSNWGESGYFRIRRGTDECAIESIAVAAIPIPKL

[2] = target: T1, Dipeptidyl peptidase 1 (Mus musculus); test: Inhibition of Cathepsin C in C57BL/6 mouse Bone marrow cells assessed as reduction of NSPs stability by measuring stability of Cat G at 1 uM treated for 6 hrs by Western blotting analysis; assay type: cell-based; set-up: scale not given: the % may be the effect or the level left; settings: Bone marrow cell
Mus musculus [3] = test: Anti-inflammatory activity against po dosed LPS-induced ALI C57BL/6 mouse model assessed as decrease in GM-CSF level in serum treated 1 hr prior to LPS challenge and measured after 48 hrs by ELISA; assay type: functional, organism-based; settings: dose 2-50 mg/kg, time 49.0 hrs, DDE = dose-dependent effect
[4] = Acute toxicity in ICR mouse assessed as pathological changes of liver at 1500 mg/kg, po administered as single dose measured after 7 days by H and E staining based assay; assay type: organism-based; settings: in vivo, time 7 day
[5] = AUC(0 to infinity) in Sprague-Dawley rat at 10 mg/kg, po by LC-MS/MS analysis; assay type: ADME, organism-based; set-up: time infinity, dose 10 mg/kg, route po; settings: in vivo
Dipeptidyl peptidase 1 [6] = target: T2, Dipeptidyl peptidase 1 (Homo sapiens, UniProt P53634); test: Binding affinity to Cathepsin C in human U-937 cells assessed as increase in thermal stability measured at 52 degC after 4 hrs by cellular thermal shift assay; assay type: cell-based; settings: dose 0.5-10 µM
T2 sequence (P53634 25-134 limits assumed): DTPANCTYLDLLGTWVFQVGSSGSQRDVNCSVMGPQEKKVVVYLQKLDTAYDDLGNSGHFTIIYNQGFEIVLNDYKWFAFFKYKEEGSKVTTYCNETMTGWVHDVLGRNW
T2 sequence (P53634 231-394 limits assumed): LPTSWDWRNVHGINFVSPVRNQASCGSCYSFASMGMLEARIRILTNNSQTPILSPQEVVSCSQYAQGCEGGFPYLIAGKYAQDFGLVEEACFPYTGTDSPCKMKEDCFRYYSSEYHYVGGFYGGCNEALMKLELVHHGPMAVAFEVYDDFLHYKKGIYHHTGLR
T2 sequence (P53634 395-463 limits assumed): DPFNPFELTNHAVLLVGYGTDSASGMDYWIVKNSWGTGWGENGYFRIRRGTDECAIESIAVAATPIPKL

Mus musculus [7] = test: In vivo inhibition of cathepsin C in po dosed LPS-induced ALI C57BL/6 mouse model assessed as downregulation of PR3 activity in blood treated 1 hr prior to LPS challenge and measured after 48 hrs; assay type: functional, organism-based; settings: dose 2-50 mg/kg, time 49.0 hrs, DDE = dose-dependent effect
Mus musculus [8] = test: Anti-inflammatory activity against po dosed LPS-induced ALI C57BL/6 mouse model assessed as decrease in TNF-alpha level in lungs treated 1 hr prior to LPS challenge and measured after 48 hrs by ELISA; assay type: functional, organism-based; settings: dose 2-50 mg/kg, time 49.0 hrs, DDE = dose-dependent effect
[9] = Acute toxicity in ICR mouse assessed as pathological changes of kidney at 1500 mg/kg, po administered as single dose measured after 7 days by H and E staining based assay; assay type: organism-based; settings: in vivo, time 7 day
Dipeptidyl peptidase 1 [10] = target: T2, Dipeptidyl peptidase 1; test: Inhibition of human recombinant Cathepsin C using H-Gly-Arg-AMC as substrate pretreated for 30 mins followed by substrate addition and incubated for 60 mins by microplate reader assay
[11] = AUC(0 to infinity) in Sprague-Dawley rat at 2 mg/kg, iv by LC-MS/MS analysis; assay type: ADME, organism-based; set-up: time infinity, dose 2 mg/kg, route iv; settings: in vivo
Mus musculus [12] = test: Anti-inflammatory activity against po dosed LPS-induced ALI C57BL/6 mouse model assessed as decrease in histopatological changes of lungs treated 1 hr prior to LPS challenge and measured after 48 hrs by H and E staining based analysis; assay type: functional, organism-based; settings: dose 2-50 mg/kg, time 49.0 hrs, DDE = dose-dependent effect
Dipeptidyl peptidase 1 [13] = target: T2, Dipeptidyl peptidase 1; test: Inhibition of Cathepsin C in human THP-1 cells using H-Gly-Phe-AFC as substrate pretreated for 1 hr followed by substrate addition and incubated for 60 mins by microplate reader assay; assay type: cell-based
Mus musculus [14] = test: In vivo inhibition of cathepsin C in po dosed LPS-induced ALI C57BL/6 mouse model assessed as downregulation of Cat G activity in blood treated 1 hr prior to LPS challenge and measured after 48 hrs; assay type: functional, organism-based; settings: dose 2-50 mg/kg, time 49.0 hrs, DDE = dose-dependent effect
Mus musculus [15] = test: Anti-inflammatory activity against po dosed LPS-induced ALI C57BL/6 mouse model assessed as decrease in GM-CSF level in lungs treated 1 hr prior to LPS challenge and measured after 48 hrs by ELISA; assay type: functional, organism-based; settings: dose 2-50 mg/kg, time 49.0 hrs, DDE = dose-dependent effect
Mus musculus [16] = test: Anti-inflammatory activity against LPS-induced ALI C57BL/6 mouse model assessed as increase in animal survival rate at 2 to 50 mg/kg, po treated 1 hr prior to LPS challenge and measured after 48 hrs; assay type: functional, organism-based; settings: dose 2-50 mg/kg, time 49.0 hrs
[17] = Acute toxicity in ICR mouse assessed as pathological changes of spleen at 1500 mg/kg, po administered as single dose measured after 7 days by H and E staining based assay; assay type: organism-based; settings: in vivo, time 7 day
Mus musculus [18] = test: Anti-inflammatory activity against LPS-induced ALI C57BL/6 mouse model assessed as decrease in pulmonary edema by measuring decrease in lung wet/dry ratio at 2 to 50 mg/kg, po treated 1 hr prior to LPS challenge and measured after 48 hrs; assay type: functional, organism-based; settings: dose 2-50 mg/kg, time 49.0 hrs
[19] = Cmax in Sprague-Dawley rat at 10 mg/kg, po measured after 24 hrs by LC-MS/MS analysis; assay type: ADME, organism-based; set-up: dose 10 mg/kg, time 24 hrs, route po; settings: in vivo
[20] = Acute toxicity in ICR mouse assessed as body weight loss at 1500 mg/kg, po administered as single dose and measured for 7 days; assay type: organism-based; settings: in vivo, time 7 day
[21] = target: T1, Dipeptidyl peptidase 1 (Mus musculus); test: Inhibition of Cathepsin C in C57BL/6 mouse Bone marrow cells assessed as reduction of NSPs stability by measuring stability of protease 3 at 1 uM treated for 48 hrs by Western blotting analysis; assay type: cell-based; set-up: scale not given: the % may be the effect or the level left; settings: Bone marrow cell
Mus musculus [22] = test: In vivo inhibition of cathepsin C in po dosed LPS-induced ALI C57BL/6 mouse model assessed as downregulation of PR3 activity in bone marrow treated 1 hr prior to LPS challenge and measured after 48 hrs; assay type: functional, organism-based; settings: dose 2-50 mg/kg, time 49.0 hrs, DDE = dose-dependent effect
Mus musculus [23] = test: In vivo inhibition of cathepsin C in blood of po dosed LPS-induced ALI C57BL/6 mouse model treated 1 hr prior to LPS challenge and measured after 48 hrs; assay type: functional, organism-based; settings: dose 2-50 mg/kg, time 49.0 hrs, DDE = dose-dependent effect
Dipeptidyl peptidase 1 [24] = target: T2, Dipeptidyl peptidase 1; test: Binding affinity to Cathepsin C in human U-937 cells assessed as increase in thermal stability at 10 uM measured from 46 to 52 degC after 4 hrs by cellular thermal shift assay; assay type: cell-based
[25] = Oral bioavailability in Sprague-Dawley rat at 10 mg/kg measured after 24 hrs by LC-MS/MS analysis; assay type: ADME, organism-based; settings: in vivo
[26] = Acute toxicity in ICR mouse assessed as mortality at 1500 mg/kg, po administered as single dose and measured for 7 days; assay type: organism-based; settings: in vivo, time 7 day
[27] = Acute toxicity in ICR mouse assessed as pathological changes of lungs at 1500 mg/kg, po administered as single dose measured after 7 days by H and E staining based assay; assay type: organism-based; settings: in vivo, time 7 day
Mus musculus [28] = test: In vivo inhibition of cathepsin C in po dosed LPS-induced ALI C57BL/6 mouse model assessed as downregulation of neutrophil elastase activity in bone marrow treated 1 hr prior to LPS challenge and measured after 48 hrs; assay type: functional, organism-based; settings: dose 2-50 mg/kg, time 49.0 hrs, DDE = dose-dependent effect
Mus musculus [29] = test: Anti-inflammatory activity against po dosed LPS-induced ALI C57BL/6 mouse model assessed as increase in IL-10 level in lungs treated 1 hr prior to LPS challenge and measured after 48 hrs by ELISA; assay type: functional, organism-based; settings: dose 2-50 mg/kg, time 49.0 hrs, DDE = dose-dependent effect

## CC(=O)Nc1cccc(Nc2nc(Nc3ccc(-c4ccsc4)cn3)ncc2Cl)c1
[1]
  Activity: 68.3%
[2]
  Activity: 93.4%
Mus musculus [3]
  Activity: Dde
[4]
  Activity: Non-Toxic
[5]
  AUC: 473.18 ng·h/mL
Dipeptidyl peptidase 1 [6]
  Activity: Active
Mus musculus [7]
  inhibition: Dde
Mus musculus [8]
  Activity: Dde
[9]
  Activity: Non-Toxic
Dipeptidyl peptidase 1 [10]
  IC50: 59.9 nM
[11]
  AUC: 1124.78 ng·h/mL
Mus musculus [12]
  Activity: Dde
Dipeptidyl peptidase 1 [13]
  IC50: 115 nM
Mus musculus [14]
  inhibition: Dde
Mus musculus [15]
  Activity: Dde
Mus musculus [16]
  Activity: Active
[17]
  Activity: Non-Toxic
Mus musculus [18]
  Activity: Active
[19]
  Cmax: 177 ng/mL
[20]
  Activity: Non-Toxic
[21]
  Activity: 46.8%
Mus musculus [22]
  inhibition: Dde
Mus musculus [23]
  inhibition: Dde
Dipeptidyl peptidase 1 [24]
  Activity: Active
[25]
  F: 42.07%
[26]
  Activity: Non-Toxic
[27]
  Activity: Non-Toxic
Mus musculus [28]
  inhibition: Dde
Mus musculus [29]
  Activity: Dde
